Experimental data: paper PMC11921344, “Antimicrobial peptide DiPGLa-H exhibits the most outstanding anti-infective activity among the PGLa variants based on a systematic comparison” (Applied and Environmental Microbiology, 2025)
Where two headings read alike, the source gives them in different places. Where no end group is shown, it is not given here.

Columns and labels:
[1] = test system: Gram-positive bacteria; assay: Geometric mean MIC and therapeutic index, Gram-positive; type: cell-based; conditions: geometric mean of the peptide MICs against Gram-positive strains
Procedure: (§1) The antibacterial activity was evaluated using a standard MIC and MBC assay according to the National Committee for Clinical Laboratory Standards (NCCLS). MIC, MBC assay, and time-kill curves for the optimal peptide are provided in the Supplementary Materials.
(§2) Antimicrobial Activity Assays. The antibacterial activity of the peptides was determined using a method designed from the National Committee for Clinical Laboratory Standards (NCCLS) in the United States. All the strains used in the experiment are preserved in the laboratory. Briefly, log phase bacterial cells were diluted in MHB to a final concentration of 0.5-1x10^5 CFU/mL. Subsequently, 50μL of different concentrations of polypeptides were incubated with 50 μL of bacterial solution in sterile 96-well plates. In the minimum inhibitory concentration (MIC) assay, the plate was incubated at 37°C for 24 h, and the minimum inhibitory concentration (MIC) was determined by the absorbance at 492 nm of the microplate reader, and the minimum inhibitory concentration (MIC) inhibited 95% of bacteria grow. Determination of minimum bactericidal concentration: the plate was incubated at 37°C for 4 hours, 50 μL of the mixture was taken out of each well, diluted with an appropriate amount of PBS, smeared on the agar plate, and cultured overnight. Colonies were counted and the initial CFU/well was retrospectively calculated the following day. The lowest concentration of peptide that kills 99.9% of bacterial cells is the minimum bactericidal concentration (µM), Each test was replicated at least 3 times.

[2] = test system: A. baumannii ATCC19606; type: cell-based, Acinetobacter baumannii
Procedure: as §1, §2

[3] = test system: S. aureus ATCC29213; type: cell-based, Staphylococcus aureus
Procedure: as §1, §2

[4] = not given; remark: listed apart in the source
[5] = test system: P. aeruginosa ATCC27853; type: cell-based, Pseudomonas aeruginosa
Procedure: as §1, §2

[6] = test system: Gram-negative bacteria; assay: Geometric mean MIC and therapeutic index, Gram-negative; type: cell-based; conditions: geometric mean of the peptide MICs against Gram-negative strains
Procedure: as §1, §2

[7] = test system: E. coli K88; assay: Heat, pH and salt sensitivity assay (MIC); type: cell-based, Escherichia coli; conditions: salts of Table S2
Procedure: (§3) To assess the stability of the peptides in physiological conditions, the peptides were incubated with E. coli K88 and S. aureus Mu50 in the presence of salts (150 mM NaCl, 4.5 mM KCl, 6 µM NH4Cl, 8 µM ZnCl2, 1 mM MgCl2, 4 µM FeCl3, and 2.5 µM CaCl2) in accordance with a previously reported protocol. To determine the thermal stability of the peptides, the peptides were pretreated at 100°C for 30 min, 60 min, and 90 min and cooled on ice for 10 min. The effect of acid and base on the antimicrobial activity was measured by treating the peptides for 2 h at pH of 2, 4, 10, and 12 in 10 mM sodium phosphate buffer adjusted with HCl or NaOH.

[8] = test system: E. coli K88; assay: LPS binding assay (MIC with exogenous LPS); type: cell-based, Escherichia coli; conditions: increasing addition of external LPS, 37°C 24 h, 492 nm
Procedure: LPS (Sigma, USA) and LTA (Sigma, USA) were dissolved in water at a concentration of 5 mg/mL. Fifty microliters of DiPGLa-H with a concentration gradient of 1–64 μM and 50 µL of LPS or LTA master mix with different concentration gradients were added to the 96-well plate in 2-fold dilution, and finally, 100 µL of diluted E. coli K88 or S. aureus Mu50 was added, incubated at 37°C in a constant temperature incubator for 24 h. The MIC was determined by absorbance at 492 nm using an enzyme marker as the lowest peptide concentration that inhibited 95% of the bacterial growth.

[9] = test system: E. coli K88 inner membrane; assay: Inner membrane integrity assay (PI); type: cell-based, Escherichia coli; conditions: 4 µM peptide, 30 min
Procedure: The outer and inner membrane integrity of bacterial cells treated with peptides was assessed using NPN and PI staining, respectively. Full details are provided in the Supplementary Materials.
Inner membrane integrity assay. E. coli K88 cells were washed and resuspended in 0.01 mol l−1 of PBS (pH 7.4) to obtain an OD600 of 0.5, followed by the addition of 10 nmol l−1 of PI (Thermo Fisher Scientific, catalogue no. P1304MP) in the presence of […]. After incubation for 30 min, fluorescence was measured with the excitation wavelength at 535 nm and emission wavelength at 615 nm.

[10] = test system: S. aureus Mu50; type: cell-based, Staphylococcus aureus MRSA; conditions: for MIC S. aureus Mu50: Mu50, 2 h
Procedure: as §3

## KIAKVALKALKIAKVALKAL-NH2 (C-terminus assumed) [DiPGLa-H]
other
  fold higher TIall vs kiadin-2: 2.5 fold
[1]
  GMMIC Gram-positive: 5.66 µM
[2]; ATCC19606, 4 h
  MBC A. baumannii ATCC19606: 4 µM
[2]; ATCC19606, 24 h
  MIC A. baumannii ATCC19606: 1 µM
[3]; ATCC29213, 4 h
  MBC S. aureus ATCC29213: 4 µM
[3]; ATCC29213, 24 h
  MIC S. aureus ATCC29213: 4 µM
[4]
  fold higher TIall vs PGLa-B1: 64 fold
[5]; ATCC27853, 4 h
  MBC P. aeruginosa ATCC27853: 2 µM
[5]; ATCC27853, 24 h
  MIC P. aeruginosa ATCC27853: 2 µM
[6]
  GMMIC Gram-negative: 2.82 µM
[7]
  elevation in MIC values by cationic ions, E. coli K88: 2–8 times
[8]
  reduction of antibacterial activity by external LPS: 16 fold
[9]
  inner membrane damage (PI): 267%
[10]; pH 2
  MIC S. aureus Mu50: >32 µM
[10]; pH 4
  MIC S. aureus Mu50: >32 µM
[10]; pH 10
  MIC S. aureus Mu50: 32 µM
[10]; pH 12
  MIC S. aureus Mu50: 32 µM
[10]; heat 100°C and pH 2-12 treatments
  increase in MIC after high temperature and pH treatments, S. aureus Mu50: ≥ 4 fold
[10]; salts of Table S2
  increase in MIC values by cations, S. aureus Mu50: more than fourfold increase
